Data: US20070154540A1 (KMSI CO., LTD., priority 2003, published 2007)

How the values were obtained:
[1] = system: RAW 264.7 cells; assay: LPS-induced prostaglandin E2 production of macrophages (immunoassay); format: cell-based, mice; conditions: LPS alone 4156, non-treated 71
Description: A macrophage cell line derived from mice, RAW 264.7 (KCLB 40071), was purchased from the Korean Cell Line Bank. RAW 264.7 cells were seeded in a density of 3×10^6 cells onto 60-mm culture dishes containing DMEM (Dulbecco's Modified Eagle Medium, 12800-017, Gibco) supplemented with 10% FBS (fetal bovine serum, 26140-079, Gibco), 100 U/ml of penicillin and 100 μg/ml streptomycin (15140-122, Gibco), and cultured at 37° C. under 5% CO2 and humidity for 24 hrs. To induce NO production, RAW 264.7 cells were treated with 500 ng/ml of an E. coli cell wall component, lipopolysaccharide (LPS, […], Sigma). […] Herein, LPS was dissolved in distilled water, and apigenin was dissolved in DMSO. Then, the culture medium and a Griess reagent were mixed at a ratio of 1:1 (100 μl: 100 μl) and allowed to stand at room temperature for 10 min. Thereafter, absorbance was measured at 540 nm using a spectrophotometer (Power Wave X340, Bio-Tek). RAW 264.7 cells were treated under the same conditions as in Example 12. PGE2 levels were measured using a PGE2 immunoassay kit (DE0100, R&D Systems). 100 μl of a culture medium was allowed to react with 50 μl of a conjugate and 50 μl of an antibody in the kit for two hours, and was then allowed to react with 200 μl of a developing reagent, pNPP, for one hour. Thereafter, absorbance was measured at 405 nm using a spectrophotometer (Power Wave X340, Bio-Tek).

[2] = system: osteoarthritis-induced New Zealand white rabbits; assay: Distribution and number of synovial cells; format: in vivo
Description: To prepare an osteoarthritis animal model, New Zealand white rabbits underwent anterior cruciate ligament transection (ACLT) in joints of their two hind legs. After three days, the rabbits were forced to sustain movement for four weeks in a space of 5×5 m^3 to induce substantial osteoarthritis. […] The following Examples 3 to 10 were all performed using joints of the osteoarthritis-induced New Zealand white rabbits prepared as in this Example 2.
Tissues were prepared according to the same method as in Example 9 and evaluated for cell number and the condition of their surfaces. Cell number was measured at a site 120 μm in depth.

Which PGE2 ([1]; LPS 500 ng/ml + apigenin 10 μM) does the source give for `O=c1cc(-c2ccc(O)cc2)oc2cc(O)cc(O)c12` [apigenin, 4′,5,7-trihydroxyflavone] here?
Its PGE2 is 3935 pg/mL.

What about the PGE2 ([1]; LPS 500 ng/ml + apigenin 20 μM) of the same molecule?
Its PGE2 is 3918 pg/mL.

What about the PGE2 ([1]; LPS 500 ng/ml + apigenin 40 μM) of the same molecule?
The PGE2 was 1057 pg/mL.

What about the PGE2 ([1]; LPS 500 ng/ml + apigenin 80 μM) of the same molecule?
Its PGE2 is 300 pg/mL.

And the “decrease in synovial cell number compared to the control group” value ([2]; after osteoarthritis induction)?
Its value is “about 34.5%”.

And the “number of synovial cells” value ([2]; after osteoarthritis induction, measured at a site 120 μm in depth, control group 632.3)?
The value was 406.6.

What about the “surface of synovial membrane section” value ([2]; right leg, compared with control group treated with physiological saline) of the same molecule?
Its value is “relatively smooth surface”.
